Consider eight compounds from PMC10384175, “In Vitro and In Silico Evaluation of Antiproliferative Activity of New Isoxazolidine Derivatives Targeting EGFR: Design, Synthesis, Cell Cycle Analysis, and Apoptotic Inducers” (Pharmaceuticals, 2023).

For assay [1], the system named is A549. As to the kind of experiment: MTT antiproliferative assay, A549. It counts as cell-based, human. A general note: Tetrazolium dyes change colour on reduction, which living cells bring about.
Protocol: Cell viability was measured according to the previously published work [42].
For a further assay, the system named is SKOV-3. Kind of assay: MTT antiproliferative assay, SKOV3. It counts as cell-based, human. Here is the method:
(§1) Compounds 2a–g were tested for their growth inhibitory effectiveness against MCF-7, A-549, and SKOV3 cell lines by means of MTT assay, with doxorubicin used as an anticancer standard drug. […] Remarkably, we note the high antiproliferative activity of 2c and 2d, only towards SKOV3.
(§2) The Roswell Park Memorial Institute medium (RPMI 1640, Gibco, Grand Island, NY, USA) was used to culture the following cancer cell lines including MCF-7, A549, and SKOV3. Cells were grown in FBS (10%) and 100 units mL PS (penicillin/streptomycin) and were supplied to the same medium under standard cell conditions in an incubator (5% of CO2, at 37 °C).
(§3) Cell viability was measured according to the previously published work.

Assay [2] concerns MCF-7. As to the kind of experiment: MTT antiproliferative assay, MCF-7. It counts as cell-based, human. Here is the method: as §1, §2, §3
For another assay, the target named is EGFR tyrosine kinase (Homo sapiens, UniProt P00533). As to the kind of experiment: EGFR tyrosine kinase inhibition. In kind it is biochemical. To be noted: enzymatic inhibition.
Assay [3] deals with MCF-7. Kind of assay: Cellular apoptosis assay (flow cytometry), MCF-7. It counts as cell-based, human. To be noted: MCF-7, at IC50, 48 h. A general note: Flow cytometry measures light scatter and fluorescence of single cells or particles in a stream.
For assay [4], the system named is SKOV3. As to the kind of experiment: Flow cytometric cell cycle analysis (PI), SKOV3. In kind it is cell-based, human. To be noted: for cell cycle arrest phase: SKOV3; for (%) of cells in G0/G1 / (%) of cells in S / decrease in the G2/M phase vs control, factor: SKOV3, 48 h at IC50. As for the experimental part:
(§4) Based on the antiproliferative activity data shown above, a flow cytometry analysis was performed to identify the cell cycle arrest induced by the selected compounds (2f and 2g) in the three cell lines, for 48 h at their respective IC50 concentrations (Figure 4). The cell cycle (G1, S, and G2) was analyzed after staining the DNA with propidium iodide (PI). […] Towards SKOV3 cell lines, the population of cells in the G0/G1 phase was not affected for 2f (31.4 ± 1.2 vs. 30.8 ± 1.5) and increased for 2g (31.4 ± 1.2 vs. 44.5 ± 0.6). Moreover, in the S phase, it was increased for 2f (43.1 ± 0.6vs. 59.5 ± 0.2) and not affected for 2g (43.1 ± 0.6 vs. 44.8 ± 1.6), however, it decreased in the G2/M phase for both 2f and 2g by a factor of 2.83 and 2.44, respectively.
(§5) The effect of selected compounds on cell cycle phase distribution was determined by flow cytometry using the same protocol described elsewhere.

The subject of assay [5] is SKOV3. As to the kind of experiment: Cellular apoptosis assay (flow cytometry), SKOV3. It counts as cell-based, human. To be noted: SKOV3, at IC50, 48 h.
Assay [6] relates to A549. Kind of assay: Cellular apoptosis assay (flow cytometry), A549. To be noted: A549, at IC50, 48 h. It counts as cell-based, human.
In assay [7] the test system is MCF-7. As to the kind of experiment: Flow cytometric cell cycle analysis (PI), MCF-7. To be noted: for cell cycle arrest phase: MCF-7; for (%) of cells in G0/G1 / (%) of cells in S: MCF-7, 48 h at IC50. In kind it is cell-based, human. As for the experimental part:
as §4, §5

The subject of assay [8] is A549. Kind of assay: Flow cytometric cell cycle analysis (PI), A549. In kind it is cell-based, human. To be noted: for cell cycle arrest phase: A549.
Protocol: The effect of selected compounds on cell cycle phase distribution was determined by flow cytometry using the same protocol described elsewhere [44].
The mark [9] stands for this setting: Homo sapiens, SK-OV-3, MTT assay.

EGFR tyrosine kinase, sequence (P00533 25-1210): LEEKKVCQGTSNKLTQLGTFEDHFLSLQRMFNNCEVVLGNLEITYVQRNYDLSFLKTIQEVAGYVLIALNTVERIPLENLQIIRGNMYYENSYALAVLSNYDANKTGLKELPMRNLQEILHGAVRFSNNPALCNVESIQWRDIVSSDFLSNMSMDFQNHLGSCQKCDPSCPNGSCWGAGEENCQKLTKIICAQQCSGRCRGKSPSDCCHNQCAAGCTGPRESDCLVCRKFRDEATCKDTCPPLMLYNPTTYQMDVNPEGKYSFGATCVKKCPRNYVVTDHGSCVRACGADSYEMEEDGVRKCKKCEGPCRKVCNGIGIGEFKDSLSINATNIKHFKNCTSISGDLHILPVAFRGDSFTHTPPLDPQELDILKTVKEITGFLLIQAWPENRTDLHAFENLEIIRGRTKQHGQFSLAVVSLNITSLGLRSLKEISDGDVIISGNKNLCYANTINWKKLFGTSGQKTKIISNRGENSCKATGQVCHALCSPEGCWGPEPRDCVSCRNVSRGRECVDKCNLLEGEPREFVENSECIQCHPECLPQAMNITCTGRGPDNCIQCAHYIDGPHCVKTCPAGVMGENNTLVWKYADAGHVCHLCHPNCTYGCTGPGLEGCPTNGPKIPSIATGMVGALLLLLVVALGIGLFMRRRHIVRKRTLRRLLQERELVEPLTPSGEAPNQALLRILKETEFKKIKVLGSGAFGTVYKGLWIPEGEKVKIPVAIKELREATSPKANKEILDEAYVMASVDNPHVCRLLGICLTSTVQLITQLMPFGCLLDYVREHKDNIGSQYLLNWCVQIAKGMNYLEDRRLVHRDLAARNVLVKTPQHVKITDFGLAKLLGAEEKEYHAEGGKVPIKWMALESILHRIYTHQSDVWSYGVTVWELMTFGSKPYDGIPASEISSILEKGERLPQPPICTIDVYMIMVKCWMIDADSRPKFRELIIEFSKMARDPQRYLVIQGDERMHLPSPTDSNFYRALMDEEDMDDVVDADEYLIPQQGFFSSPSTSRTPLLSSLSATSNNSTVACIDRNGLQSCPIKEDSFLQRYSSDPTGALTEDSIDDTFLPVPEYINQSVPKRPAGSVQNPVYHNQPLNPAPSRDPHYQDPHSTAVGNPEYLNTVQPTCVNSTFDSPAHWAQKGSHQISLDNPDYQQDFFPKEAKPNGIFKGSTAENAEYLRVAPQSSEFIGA
Protocol for EGFR tyrosine kinase: The EGFR activity was determined based on the method reported by E.A.A. El-Meguid et al. [43].

As usually defined, the IC50 is the concentration that inhibits the measured activity by half. With `COc1cc(C[C@@H]2C[C@H]3C(=O)N(C)[C@@]4(C[C@H](C)CC[C@H]4C(C)C)N3O2)ccc1OC(C)=O` [2e, 4-(((1S,2S,2′R,3a′S,5R)-2-Isopropyl-5,5′-dimethyl-4′-oxotetrahydro-2′H-spiro[cyclohexane-1,6′-imidazo [1,5-b]isoxazol]-2′-yl)methyl)-2-methoxyphenyl acetate], the half-inhibitory concentration (IC50) in the assay with A549 [1] (Homo sapiens, A549, MTT assay) was 53.5 ± 1.1 µM; with SKOV-3 (setting [9]), 27.9 ± 1.9 µM; in the assay on MCF-7 [2] (Homo sapiens, MCF7, MTT assay), 66.8 ± 2.7 µM.
Consider `CC(C)[C@@H]1CC[C@@H](C)C[C@@]12N(C)C(=O)[C@@H]1C[C@@H](Cc3ccccc3O)ON12` [2f, (1S,2S,2′R,3a′S,5R)-2′-(2-Hydroxybenzyl)-2-isopropyl-5,5′-dimethyldihydro-2′H-spiro[cyclohexane-1,6′-imidazo [1,5-b]isoxazol]-4′(5′H)-one], for which the IC50 was found to be 0.298 ± 0.007 µM at EGFR tyrosine kinase; 9.7 ± 0.7 µM in the assay with A549 [1] (Homo sapiens, A549, MTT assay); 12.1 ± 1.1 µM in the assay on A549 [1] (MTT assay); 9.7 ± 1.3 µM in the assay with MCF-7 [2] (Homo sapiens, MCF7, MTT assay); 17.7 ± 1 µM with MCF-7 [2] (MTT assay). Moreover, the Early apoptosis is listed as 70.48% in the assay with MCF-7 [3], 17.9% in the assay on SKOV3 [5] and 16.72% with A549 [6]. Further, the values for the Intact cells with MCF-7 [3], in the assay on SKOV3 [5] and in the assay on A549 [6] were 13.11%, 8.78% and 7.39%, respectively. Moreover, the Late apoptosis is reported as 15.78% in the assay with MCF-7 [3], 67.16% in the assay on SKOV3 [5] and 70.5% in the assay on A549 [6]. In addition, the Necrosis came to 0.63% in the assay with MCF-7 [3], 6.16% in the assay on SKOV3 [5] and 5.39% in the assay with A549 [6]. In addition, the “Total death (cellular apoptosis)” value with MCF-7 [3] was 86.89%; in the assay with SKOV3 [5], 91.22%; in the assay on A549 [6], 92.61%. For the same compound, the “cell cycle arrest phase” value in the assay with SKOV3 [4] is given as “S phase”; with MCF-7 [7] it was “S phase”; with A549 [8], “G2/M phase”. Moreover, the “(%) of cells in G0/G1” value in the assay on SKOV3 [4] was 31.4 ± 1.2%; in the assay on MCF-7 [7], 19 ± 1.2%; in the assay on A549 [8] (A549, 48 h at IC50), 23.1 ± 0.8%. Also, the “(%) of cells in S” value with SKOV3 [4] is given as 59.5 ± 0.2%; in the assay on MCF-7 [7], 63.3 ± 0.6%. The “decrease in the G2/M phase vs control, factor” value in the assay on SKOV3 [4] was 2.83.
With “(2R,2′R,3a′S,5R)-2′-(2-acetyl-6-hydroxybenzyl)-2,5,5′-trimethyldihydro-2′H-spiro[cyclohexane-1,6′-imidazo [1,5-b]isoxazol]-4′(5′H)-one [2b]”, the 50% inhibitory concentration (IC50) with A549 [1] (MTT assay) was 48.7 ± 0.9 µM; in the assay with SKOV-3 (MTT assay) it was 18.3 ± 0.9 µM; with MCF-7 [2] (MTT assay), 22.2 ± 0.3 µM.
As for `COc1ccc(C[C@@H]2C[C@H]3C(=O)N(C)C4(C[C@H](C)CC[C@H]4C(C)C)N3O2)cc1OC` (stereo partly drawn) [2d, (2S,2′R,3a′S,5R)-2′-(3,4-dimethoxybenzyl)-2-isopropyl-5,5′-dimethyldihydro-2′H-spiro[cyclohexane-1,6′-imidazo [1,5-b]isoxazol]-4′(5′H)-one], the half-maximal inhibitory concentration (IC50) in the assay with A549 [1] (Homo sapiens, A549, MTT assay) is 25 ± 2.5 µM; in the assay on SKOV-3 (setting [9]), 27.6 ± 2.2 µM; with MCF-7 [2] (Homo sapiens, MCF7, MTT assay), 8.7 ± 0.5 µM.
The corresponding values for `Cc1cccc(C[C@@H]2C[C@H]3C(=O)N(C)C4(C[C@H](C)CC[C@H]4C(C)C)N3O2)c1O` (stereo partly drawn) [2c, (2S,2′R,3a′S,5R)-2′-(2-hydroxy-3-methylbenzyl)-2-isopropyl-5,5′-dimethyldihydro-2′H-spiro[cyclohexane-1,6′-imidazo [1,5-b]isoxazol]-4′(5′H)-one] are 35.4 ± 0.14 µM, 19.4 ± 1.4 µM and 7.2 ± 0.2 µM.
Compound `COC(=O)c1cc(C)cc(C[C@@H]2C[C@H]3C(=O)N(C)[C@@]4(C[C@H](C)CC[C@H]4C(C)C)N3O2)c1O` [2g, Methyl 2-hydroxy-3-(((1S,2S,2′R,3a′S,5R)-2-isopropyl-5,5′-dimethyl-4′-oxotetrahydro-2′H-spiro[cyclohexane-1,6′-imidazo[1,5-b]isoxazol]-2′-yl)methyl)-5-methylbenzoate] yielded an IC50 against EGFR tyrosine kinase of 0.484 ± 0.01 µM. In the assay with MCF-7 [3], this compound had an Early apoptosis of 46.49%, an Intact cells of 24.83%, a Late apoptosis of 20.51% and a Necrosis of 8.17%. In addition, the “Total death (cellular apoptosis)” value in the assay on MCF-7 [3] was 75.17%. Further, in the assay with SKOV3 [4], the “cell cycle arrest phase” value is recorded as “G0/G1 phase”; the “(%) of cells in G0/G1” value stood at 44.5 ± 0.6%; the “(%) of cells in S” value is on record as 44.8 ± 1.6%; the “decrease in the G2/M phase vs control, factor” value was determined as 2.44. Further, in the assay with A549 [1] (Homo sapiens, A549, MTT assay), the IC50 stood at 12.1 ± 1.1 µM. Further, the midpoint of inhibition in the assay with A549 [1] (MTT assay), the IC50, lay at 9.7 ± 0.7 µM. In the assay with SKOV3 [5], this compound gave an Early apoptosis of 12.92%, an Intact cells of 3.34%, a Late apoptosis of 81.05% and a Necrosis of 2.68%. The “Total death (cellular apoptosis)” value with SKOV3 [5] is on record as 96.65%. In the assay with A549 [6], this compound came in with an Early apoptosis of 60.72%, an Intact cells of 21.24%, a Late apoptosis of 17.69% and a Necrosis of 0.35%. Moreover, the “Total death (cellular apoptosis)” value in the assay on A549 [6] is 78.76%. Besides, the IC50 in the assay on MCF-7 [2] (Homo sapiens, MCF7, MTT assay) stood at 17.7 ± 1 µM. Besides, the half-inhibitory concentration (IC50) in the assay with MCF-7 [2] (MTT assay) was 9.7 ± 1.3 µM. Further, in the assay with MCF-7 [7], the “cell cycle arrest phase” value is given as “G0/G1 phase”, the “(%) of cells in G0/G1” value was found to be 53.7 ± 0.6% and the “(%) of cells in S” value was 36.3 ± 0.6%. Besides, in the assay with A549 [8], the “cell cycle arrest phase” value was “G0/G1 phase”. Further, in the assay with A549 [8] (A549, 48 h at IC50), the “(%) of cells in G0/G1” value amounted to 49.3 ± 0.7%, the “(%) of cells in S” value is 40.2 ± 0.3%, the “decrease of population in the G2/M phase vs control” value amounted to 2.37 folds and the “decrease of population in the S phase vs control” value turned out to be 1.08 folds.
Consider `COc1cccc2c1C(=O)c1c(O)c3c(c(O)c1C2=O)C[C@@](O)(C(=O)CO)C[C@@H]3O[C@H]1C[C@H](N)[C@H](O)[C@H](C)O1` [Doxorubicin, doxorubicin, reference compound], for which the values for the Early apoptosis with MCF-7 [3], with SKOV3 [5] and in the assay with A549 [6] were 17.12%, 20.56% and 9.38%, respectively. The results for the Intact cells in the assay with MCF-7 [3], in the assay with SKOV3 [5] and in the assay on A549 [6] were 7.94%, 3.25% and 1.16%, respectively. The Late apoptosis is 68.7% in the assay with MCF-7 [3], 73.08% in the assay with SKOV3 [5] and 88.01% in the assay on A549 [6]. The Necrosis with MCF-7 [3] worked out at 6.24%; in the assay on SKOV3 [5] it was 3.11%; in the assay on A549 [6], 1.45%. For the same compound, the “Total death (cellular apoptosis)” value in the assay with MCF-7 [3] was determined as 92.06%; in the assay with SKOV3 [5], 96.75%; in the assay with A549 [6], 98.84%. Further, the “(%) of cells in G0/G1” value in the assay on SKOV3 [4] is recorded as 16.7 ± 1%; in the assay on MCF-7 [7] it was 18.4 ± 0.9%; in the assay with A549 [8] (A549, 48 h at IC50) it was 16.12 ± 0.54%. The “(%) of cells in S” value in the assay on SKOV3 [4] amounted to 30.7 ± 0.6%; with MCF-7 [7], 34 ± 0.6%; with A549 [8] (A549, 48 h at IC50), 34.01 ± 0.24%. The 50% inhibitory concentration (IC50) stood at 4.2 ± 0.24 µM with A549 [1] (Homo sapiens, A549, MTT assay); 4.2 ± 0.013 µM in the assay with SKOV-3 (setting [9]); 2.8 ± 0.4 µM in the assay with MCF-7 [2] (Homo sapiens, MCF7, MTT assay).
In the case of `COc1cc(C[C@@H]2C[C@H]3C(=O)N(C)C4(C[C@H](C)CC[C@H]4C(C)C)N3O2)ccc1O` (stereo partly drawn) [2a, (2S,2′R,3a′S,5R)-2′-(4-hydroxy-3-methoxybenzyl)-2-isopropyl-5,5′-dimethyldihydro-2′H-spiro[cyclohexane-1,6′-imidazo [1,5-b]isoxazol]-4′(5′H)-one], the IC50 in the assay on A549 [1] (Homo sapiens, A549, MTT assay) is 18.1 ± 0.7 µM; in the assay with SKOV-3 (setting [9]), 14.5 ± 0.9 µM; with MCF-7 [2] (Homo sapiens, MCF7, MTT assay), 21.3 ± 0.5 µM.
